Reference: patent US12496350B2 (Ohio State Innovation Foundation, priority 2018, dated 2025)
Where a SMILES comes first, the peptide text is derived from it. Where no end group is shown, it is not given here. [ ]: non-standard residue; d: D form. The star is where a group is joined. X2 = O=C(O)c1cc(C(=O)*)ccc1-c1c2ccc(=O)cc-2oc2cc(O)ccc12; X1 = O=C(O)c1cc(NC(=S)*)ccc1C1c2ccc(O)cc2Oc2cc(O)ccc21; X3 = O=C(O)c1cc(C(=O)*)ccc1C1c2ccc(O)cc2Oc2cc(O)ccc21; 1Nal = N[C@@H](Cc1cccc2ccccc12)C(=O)O; 2Nal = N[C@@H](Cc1ccc2ccccc2c1)C(=O)O; Bta = N[C@@H](Cc1csc2ccccc12)C(=O)O; Pen = CC(C)(S)[C@H](N)C(=O)O; Tle = CC(C)(C)[C@H](N)C(=O)O; AEEA = NCCOCCOCC(=O)O

Target: T1, CAL PDZ domain (CALP5-His) (Homo sapiens, UniProt Q9HD26)
T1 construct: His
Assay: Direct fluorescence polarization binding of labeled peptide, Condition C
Settings: not given
Procedure: Condition C (denoted with superscript ^C): 50 nM labeled peptide was incubated with 2 mM TCEP in PBS at pH 7.4 containing 0.01% Triton-X100. CALP5-His was serially diluted in PBS containing 0.01% Triton-X100 to which was then added the peptide and TCEP solution. This solution was mixed for 1 h at RT then 20 uL was pipetted into 384-well microplates and fluorescence polarization was measured using a TECAN Infinite M1000 plate reader. KD values were calculated using KaleidaGraph v. 3.6 using the equation: […]
Binding Affinity and Selectivity. The potency and selectivity of inhibitor 29 was first assessed by comparing its binding affinity to the four PDZ domains of CAL, NHERF1, and NHERF2, which are involved in the trafficking of CFTR to and from the plasma membrane. Peptides were labeled with FITC at the N-terminus through a miniPEG linker and tested for binding to various PDZ domains by fluorescence polarization (FP). FITC-labeled peptide (50 nM) was incubated with varying concentrations of PDZ domain in PBS (pH 7.4) containing 0.01% Triton X-100 and 2 mM TCEP for 1 h at room temperature. After 1 h, 20 μL of each sample was pipetted into 384-well black-on-black microplates and fluorescence polarization was measured by using a TECAN Infinite M1000 plate reader. Data was processed using GraphPad PRISM ver. 8.0.
With `C[C@@H](O)[C@H](NC(=O)[C@@H](NC(=O)[C@@H](NC(=O)[C@H](Cc1csc2ccccc12)NC(=O)[C@H](Cc1ccc2ccccc2c1)NC(=O)[C@H](CCCNC(=N)N)NC(=O)[C@H](CCCNC(=N)N)NC(=O)[C@@H](CCCNC(=N)N)NC(=O)[C@H](CS)NC(=O)COCCOCCNC(=O)c1ccc(-c2c3ccc(=O)cc-3oc3cc(O)ccc23)c(C(=O)O)c1)C(C)(C)S)C(C)(C)C)C(=O)N[C@@H](CCCNC(=N)N)C(=O)N[C@H](C(=O)O)C(C)(C)C` [Compound 26, FAM-miniPEG-Cys-(D-Arg)-Arg-Arg-(2-Nal)-(Bta)-Pen-Tle-Thr-Arg-Tle-OH] ({X2-AEEA}-C[dR]RR[2Nal][Bta][Pen][Tle]TR[Tle]-OH) the “specificity for CAL PDZ domain relative to other PDZ domains (e.g., NHERF PDZ domains)” value was “relatively low specificity”.

Same assay, conditions: Condition C (superscript c): 50 nM labeled peptide, 2 mM TCEP; read-out: KD (printed in the IC50 (nM) column)
With `C[C@@H](O)[C@H](NC(=O)[C@@H](NC(=O)[C@@H]1CCCN1C(=O)[C@H](Cc1c[nH]c2ccccc12)NC(=O)[C@H](Cc1ccc2ccccc2c1)NC(=O)[C@H](CCCNC(=N)N)NC(=O)[C@H](CCCNC(=N)N)NC(=O)[C@H](CCCNC(=N)N)NC(=O)[C@H](CS)NC(=O)COCCOCCNC(=O)c1ccc(C2c3ccc(O)cc3Oc3cc(O)ccc32)c(C(=O)O)c1)C(C)(C)S)C(=O)N[C@@H](CCCNC(=N)N)C(=O)N[C@H](C(=O)O)C(C)(C)C` [Compound 23, FAM-miniPEG-Cys-(D-Arg)-Arg-Arg-(2-Nal)-Trp-Pro-Pen-Thr-Arg-Tle-OH] ({X3-AEEA}-CRRR[2Nal]WP[Pen]TR[Tle]-OH) the Kd was 168 nM. In the case of `C[C@@H](O)[C@H](NC(=O)[C@@H](NC(=O)[C@@H](NC(=O)[C@H](Cc1csc2ccccc12)NC(=O)[C@H](Cc1ccc2ccccc2c1)NC(=O)[C@H](CCCNC(=N)N)NC(=O)[C@H](CCCNC(=N)N)NC(=O)[C@@H](CCCNC(=N)N)NC(=O)[C@H](CS)NC(=O)COCCOCCNC(=O)c1ccc(-c2c3ccc(=O)cc-3oc3cc(O)ccc23)c(C(=O)O)c1)C(C)(C)S)C(C)(C)C)C(=O)N[C@@H](CCCNC(=N)N)C(=O)N[C@H](C(=O)O)C(C)(C)C` [Compound 26, FAM-miniPEG-Cys-(D-Arg)-Arg-Arg-(2-Nal)-(Bta)-Pen-Tle-Thr-Arg-Tle-OH] ({X2-AEEA}-C[dR]RR[2Nal][Bta][Pen][Tle]TR[Tle]-OH), the Kd is reported as 49 ± 3 nM.

Same assay, conditions: FITC-labeled peptide, FP; read-out: Affinity (KD)
For `CC(=O)N[C@@H](CS)C(=O)N[C@H](CCCNC(=N)N)C(=O)N[C@@H](CCCNC(=N)N)C(=O)N[C@@H](CCCNC(=N)N)C(=O)N[C@@H](Cc1ccc2ccccc2c1)C(=O)N[C@@H](Cc1c[nH]c2ccccc12)C(=O)N1CCC[C@H]1C(=O)N[C@H](C(=O)N[C@H](C(=O)N[C@@H](CCCNC(=N)N)C(=O)N[C@H](C(=O)O)C(C)(C)C)[C@@H](C)O)C(C)(C)S` [Compound 27, Ac-Cys-(D-Arg)-Arg-Arg-Nal-Trp-Pro-Pen-Thr-Arg-Tle-OH] (Ac-C[dR]RR[2Nal]WP[Pen]TR[Tle]-OH), the Kd was 179 nM. `C[C@@H](O)[C@H](NC(=O)[C@@H](NC(=O)[C@@H]1CCCN1C(=O)[C@H](Cc1c[nH]c2ccccc12)NC(=O)[C@H](Cc1ccc2ccccc2c1)NC(=O)[C@H](CCCNC(=N)N)NC(=O)[C@H](CCCNC(=N)N)NC(=O)[C@@H](CCCNC(=N)N)NC(=O)[C@H](CS)NC(=O)COCCOCCNC(=S)Nc1ccc(C2c3ccc(O)cc3Oc3cc(O)ccc32)c(C(=O)O)c1)C(C)(C)S)C(=O)N[C@@H](CCCNC(=N)N)C(=O)N[C@H](C(=O)O)C(C)(C)C` [Compound 27-FITC, FITC-miniPEG-Cys-(D-Arg)-Arg-Arg-Nal-Trp-Pro-Pen-Thr-Arg-Tle-OH] ({X1-AEEA}-C[dR]RR[2Nal]WP[Pen]TR[Tle]-OH) gave a Kd of 179 ± 42 nM. `CC(=O)N[C@@H](CS)C(=O)N[C@H](CCCNC(=N)N)C(=O)N[C@@H](CCCNC(=N)N)C(=O)N[C@@H](CCCNC(=N)N)C(=O)N[C@@H](Cc1ccc2ccccc2c1)C(=O)N[C@@H](Cc1csc2ccccc12)C(=O)N1CCC[C@H]1C(=O)N[C@H](C(=O)N[C@H](C(=O)N[C@@H](CCCNC(=N)N)C(=O)N[C@H](C(=O)O)C(C)(C)C)[C@@H](C)O)C(C)(C)S` [Compound 28, Ac-Cys-(D-Arg)-Arg-Arg-Nal-Bta-Pro-Pen-Thr-Arg-Tle-OH] (Ac-C[dR]RR[2Nal][Bta]P[Pen]TR[Tle]-OH) gave a Kd of 87 nM. Compound `C[C@@H](O)[C@H](NC(=O)[C@@H](NC(=O)[C@@H]1CCCN1C(=O)[C@H](Cc1csc2ccccc12)NC(=O)[C@H](Cc1ccc2ccccc2c1)NC(=O)[C@H](CCCNC(=N)N)NC(=O)[C@H](CCCNC(=N)N)NC(=O)[C@@H](CCCNC(=N)N)NC(=O)[C@H](CS)NC(=O)COCCOCCNC(=S)Nc1ccc(C2c3ccc(O)cc3Oc3cc(O)ccc32)c(C(=O)O)c1)C(C)(C)S)C(=O)N[C@@H](CCCNC(=N)N)C(=O)N[C@H](C(=O)O)C(C)(C)C` [Compound 28-FITC, FITC-miniPEG-Cys-(D-Arg)-Arg-Arg-Nal-Bta-Pro-Pen-Thr-Arg-Tle-OH] ({X1-AEEA}-C[dR]RR[2Nal][Bta]P[Pen]TR[Tle]-OH) has a Kd of 87 ± 14 nM.

Target: CAL PDZ binding domain (Homo sapiens, UniProt Q9HD26)
Assay: not given
Settings: CAL PDZ binding sequences not conjugated to a cCPP; cited from earlier work
In the case of WQFTKL [WQFTKL], the Ki is listed as 16 ± 1 µM. In the case of WQFTRL [WQFTRL], the Ki is given as 7.6 ± 0.7 µM. In the case of WQKTKL [WQKTKL], the Ki is given as 17.8 ± 0.8 µM. In the case of WQKTRI [WQKTRI], the Ki is listed as 12 ± 0.9 µM. For WQKTRL [WQKTRL], the Ki is given as 9 ± 0.6 µM. For WQKTRV [WQKTRV], the Ki is given as 16 ± 2 µM. In the case of WQLTKL [WQLTKL], the Ki is given as 17 ± 1 µM. In the case of WQRTRI [WQRTRI], the Ki is given as 16 ± 2 µM. For WQRTRL [WQRTRL], the Ki is listed as 10.8 ± 0.7 µM. For WQRTRV [WQRTRV], the Ki is given as 18 ± 1 µM. In the case of WQVTRV [WQVTRV], the Ki is given as 2.3 ± 0.2 µM.

Target: T1, CAL PDZ domain (CALP5-His)
Assay: FP-based competition assay, Condition B (probe FAM-[…]-OH)
Assay type: binding
Settings: Condition B (superscript b): 100 nM probe FAM-[…]-OH, 500 nM CALP5-His, 5 mM DTT
Procedure: Serial dilutions of each competitor peptide were prepared in PBS and the incubation solution was added to each. The combined solutions were gently mixed for 1 h at RT after which 20 uL sample was pipetted into 384-well black-on-black microplates and fluorescence polarization was measured using a TECAN Infinite M1000 plate reader. Data was processed to determine IC50 using GraphPad PRISM ver. 6.0.
In the case of `CC(=O)N[C@@H](CS)C(=O)N[C@@H](CCCNC(=N)N)C(=O)N[C@@H](CCCNC(=N)N)C(=O)N[C@@H](CCCNC(=N)N)C(=O)N[C@@H](Cc1ccccc1)C(=O)N[C@@H](Cc1c[nH]c2ccccc12)C(=O)N[C@@H](CCC(N)=O)C(=O)N[C@@H](CS)C(=O)N[C@H](C(=O)N[C@@H](CCCNC(=N)N)C(=O)N[C@@](C)(CC(C)C)C(=O)O)[C@@H](C)O` [Compound 4], the IC50 is reported as greater than 20 µM.

Same assay, conditions: Pen for cysteine at P-3
For `CC(=O)N[C@@H](CS)C(=O)N[C@@H](CCCNC(=N)N)C(=O)N[C@@H](CCCNC(=N)N)C(=O)N[C@@H](CCCNC(=N)N)C(=O)N[C@@H](Cc1ccccc1)C(=O)N[C@@H](Cc1c[nH]c2ccccc12)C(=O)N[C@@H](CCC(N)=O)C(=O)N[C@H](C(=O)N[C@H](C(=O)N[C@@H](CCCNC(=N)N)C(=O)N[C@H](C(=O)O)C(C)(C)C)[C@@H](C)O)C(C)(C)S` [Compound 16, Ac-Cys-Arg-Arg-Arg-Phe-Trp-Gln-Pen-Thr-Arg-Tle-OH], the “improvement of CAL binding” value was roughly 2 fold.

Same assay, conditions: Trp replaced with 1- or 2-naphthylalanine
In the case of `CC(=O)N[C@@H](CS)C(=O)N[C@@H](CCCNC(=N)N)C(=O)N[C@@H](CCCNC(=N)N)C(=O)N[C@@H](CCCNC(=N)N)C(=O)N[C@@H](Cc1ccccc1)C(=O)N[C@@H](Cc1cccc2ccccc12)C(=O)N[C@@H](CCC(N)=O)C(=O)N[C@@H](CS)C(=O)N[C@H](C(=O)N[C@@H](CCCNC(=N)N)C(=O)N[C@H](C(=O)O)C(C)(C)C)[C@@H](C)O` [Compound 14, Ac-Cys-Arg-Arg-Arg-Phe-(1-Nal)-Gln-Cys-Thr-Arg-Tle-OH] (Ac-CRRRF[1Nal]QCTR[Tle]-OH), the “effect of substitution at P-5 on binding” value is reported as “did not significantly affect the binding”. In the case of `CC(=O)N[C@@H](CS)C(=O)N[C@@H](CCCNC(=N)N)C(=O)N[C@@H](CCCNC(=N)N)C(=O)N[C@@H](CCCNC(=N)N)C(=O)N[C@@H](Cc1ccccc1)C(=O)N[C@@H](Cc1ccc2ccccc2c1)C(=O)N[C@@H](CCC(N)=O)C(=O)N[C@@H](CS)C(=O)N[C@H](C(=O)N[C@@H](CCCNC(=N)N)C(=O)N[C@H](C(=O)O)C(C)(C)C)[C@@H](C)O` [Compound 15, Ac-Cys-Arg-Arg-Arg-Phe-(2-Nal)-Gln-Cys-Thr-Arg-Tle-OH] (Ac-CRRRF[2Nal]QCTR[Tle]-OH), the “effect of substitution at P-5 on binding” value is reported as “did not significantly affect the binding”.
